Data on 33 molecules can be found in ChEMBL document CHEMBL1138982 (Bioorg Med Chem Lett, 2006).

Structures are written as SMILES.

The target in the first experiment is Substance-P receptor (Homo sapiens, UniProt P25103). The experiment can be described thus: Displacement of [3H]-labeled substance P from cloned human NK1 receptor expressed in CHO cells. In kind it is cell-based.
Substance-P receptor, sequence (P25103 whole entry): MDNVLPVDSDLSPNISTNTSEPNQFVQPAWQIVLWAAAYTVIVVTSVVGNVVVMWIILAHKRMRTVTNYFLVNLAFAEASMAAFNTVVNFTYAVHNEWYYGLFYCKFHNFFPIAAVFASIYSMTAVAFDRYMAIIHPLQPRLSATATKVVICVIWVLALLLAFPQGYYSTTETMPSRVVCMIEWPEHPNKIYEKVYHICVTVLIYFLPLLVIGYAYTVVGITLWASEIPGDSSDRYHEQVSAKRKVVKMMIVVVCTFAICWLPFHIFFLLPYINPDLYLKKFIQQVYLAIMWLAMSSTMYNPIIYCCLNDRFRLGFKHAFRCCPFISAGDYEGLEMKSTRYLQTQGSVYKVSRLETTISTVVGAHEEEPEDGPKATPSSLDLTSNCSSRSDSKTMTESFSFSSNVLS
Details: not given
For the molecule `CN(Cc1cc(C(F)(F)F)cc(C(F)(F)F)c1)C(=O)c1ccccc1-c1ccccc1Br`, the Ki was 0.045 µM.
The same measure, in the same setting: the result for `CC(C)(NC(=O)c1ccccc1-c1ccccc1)c1cc(C(F)(F)F)cc(C(F)(F)F)c1` reads above 10 µM; that for `CN(Cc1cc(C(F)(F)F)cc(C(F)(F)F)c1)C(=O)c1ccccc1-c1ccccc1`, 0.051 µM; that for `Cc1ccccc1-c1cccnc1N(C)C(=O)C(C)(C)c1cc(C(F)(F)F)cc(C(F)(F)F)c1`, 0.004 µM.
Same read-out and setting: for `Cc1ccccc1-c1nc(N2CCN(C)CC2)ncc1N(C)C(=O)C(C)(C)c1cc(C(F)(F)F)cc(C(F)(F)F)c1` the value was 0.00044 µM; for `CN(C(=O)C(C)(C)c1cc(C(F)(F)F)cc(C(F)(F)F)c1)c1ccccc1-c1ccccc1`, 0.068 µM.
Still for that read-out and setting: for `Clc1cncc(Cl)c1N/N=C/c1ccccc1-c1c(Cl)cccc1Cl` the value was 0.093 µM; for `Cc1onc(-c2c(Cl)cccc2Cl)c1/C=N/Nc1c(Cl)cncc1Cl`, 0.015 µM.
For `Cc1ccccc1-c1ccncc1C(=O)N(C)Cc1cc(C(F)(F)F)cc(C(F)(F)F)c1`, the Ki was 0.0085 µM.
For the molecule `Cc1ccccc1-c1nc(N2CCN(C)CC2)ncc1C(=O)N(C)Cc1cc(C(F)(F)F)cc(C(F)(F)F)c1`, affinity was put at a Ki of 0.0017 µM.
On the same count and under the same terms, the result for `Cc1ccccc1-c1cc(N2CCN(C)CC2)ccc1C(=O)N(C)Cc1cc(C(F)(F)F)cc(C(F)(F)F)c1` reads 0.0014 µM; that for `Cc1ccccc1-c1cnccc1N(C)C(=O)C(C)(C)c1cc(C(F)(F)F)cc(C(F)(F)F)c1`, 0.0033 µM; that for `Clc1cncc(Cl)c1N/N=C/c1ccccc1-c1ccccc1Br`, 0.049 µM.
For `Cc1ccccc1-c1cnccc1C(=O)N(C)Cc1cc(C(F)(F)F)cc(C(F)(F)F)c1`, the Ki amounted to 0.0046 µM.
Molecule `FC(F)(F)c1cc(COCc2ccccc2-c2ccccc2)cc(C(F)(F)F)c1` came in with a Ki of 0.224 µM.
Still for that read-out and setting: for `Cc1ccccc1-c1cccnc1C(=O)N(C)Cc1cc(C(F)(F)F)cc(C(F)(F)F)c1` the value was 0.0038 µM; for `Cc1ccccc1-c1ccc(N2CCN(C)CC2)nc1N(C)C(=O)C(C)(C)c1cc(C(F)(F)F)cc(C(F)(F)F)c1`, 0.002 µM.
Same read-out and setting: for `Cc1ccccc1-c1cc(N2CCS(=O)(=O)CC2)ncc1N(C)C(=O)C(C)(C)c1cc(C(F)(F)F)cc(C(F)(F)F)c1` the value was 0.0013 µM; for `FC(F)(F)c1cc(CNCc2ccccc2-c2ccccc2)cc(C(F)(F)F)c1`, 0.372 µM; for `Cc1ccccc1-c1ccc(N2CCN(C)CC2)nc1C(=O)N(C)Cc1cc(C(F)(F)F)cc(C(F)(F)F)c1`, 0.0062 µM.
Still for that read-out and setting: the result for `Cc1ccccc1-c1ccccc1/C=N/Nc1c(Cl)cncc1Cl` reads 0.316 µM.
With `CN(C(=O)Cc1cc(C(F)(F)F)cc(C(F)(F)F)c1)c1ccccc1-c1ccccc1`, the Ki turned out to be 0.562 µM.
Still for that read-out and setting: the result for `Cc1ccccc1-c1cnc(N2CCN(C)CC2)nc1N(C)C(=O)C(C)(C)c1cc(C(F)(F)F)cc(C(F)(F)F)c1` reads 0.0011 µM; that for `CN(Cc1cc(C(F)(F)F)cc(C(F)(F)F)c1)C(=O)c1ccccc1-c1ccccc1Cl`, 0.022 µM; that for `Cc1ccccc1-c1cc(N2CCC(O)CC2)ncc1N(C)C(=O)C(C)(C)c1cc(C(F)(F)F)cc(C(F)(F)F)c1`, 0.0004 µM.
Consider `O=C(NCc1cc(C(F)(F)F)cc(C(F)(F)F)c1)c1ccccc1-c1ccccc1`, for which the Ki was above 10 µM.
Same read-out and setting: the result for `Cc1ccccc1-c1cnc(N2CCN(C)CC2)cc1N(C)C(=O)C(C)(C)c1cc(C(F)(F)F)cc(C(F)(F)F)c1` reads 0.0017 µM.
The same measure, in the same setting: the result for `Clc1cncc(Cl)c1N/N=C/c1ccccc1-c1ccccc1` reads 0.933 µM; that for `Clc1ccccc1-c1ccccc1/C=N/Nc1c(Cl)cncc1Cl`, 0.174 µM; that for `CN(C(=O)c1ccccc1-c1ccccc1)C(C)(C)c1cc(C(F)(F)F)cc(C(F)(F)F)c1`, 0.295 µM.
Same read-out and setting: the result for `CN(Cc1cc(C(F)(F)F)cc(C(F)(F)F)c1)Cc1ccccc1-c1ccccc1` reads 0.724 µM.
The molecule `Cc1ccccc1-c1cc(N2CCN(C)CC2)ncc1N(C)C(=O)C(C)(C)c1cc(C(F)(F)F)cc(C(F)(F)F)c1` [NETUPITANT] displayed a Ki of 0.00095 µM.

A further experiment relates to Gerbil, jird. The experiment can be described thus: Inhibition of GR-73632 induced foot tapping in gerbil, po. The note with it: Meriones, read-out: ID50 (the source's name). In kind it is functional.
On to `Cc1ccccc1-c1cc(N2CCS(=O)(=O)CC2)ncc1N(C)C(=O)C(C)(C)c1cc(C(F)(F)F)cc(C(F)(F)F)c1`, for which the ED50 is 0.8 mg/kg.
With `Cc1ccccc1-c1cc(N2CCC(O)CC2)ncc1N(C)C(=O)C(C)(C)c1cc(C(F)(F)F)cc(C(F)(F)F)c1`, the ED50 amounted to 0.5 mg/kg.
The same measure, in the same setting: for `Cc1ccccc1-c1cc(N2CCOCC2)ncc1N(C)C(=O)C(C)(C)c1cc(C(F)(F)F)cc(C(F)(F)F)c1` [BEFETUPITANT] the value was 0.2 mg/kg; for `Cc1ccccc1-c1cc(N2CCN(C)CC2)ncc1N(C)C(=O)C(C)(C)c1cc(C(F)(F)F)cc(C(F)(F)F)c1` [NETUPITANT], 0.5 mg/kg.
